What all share (assay type): cell-based
The target of assay [1] is T1, hNMUR1 (Homo sapiens, UniProt Q9HB89).
T1 sequence (Q9HB89 1-426): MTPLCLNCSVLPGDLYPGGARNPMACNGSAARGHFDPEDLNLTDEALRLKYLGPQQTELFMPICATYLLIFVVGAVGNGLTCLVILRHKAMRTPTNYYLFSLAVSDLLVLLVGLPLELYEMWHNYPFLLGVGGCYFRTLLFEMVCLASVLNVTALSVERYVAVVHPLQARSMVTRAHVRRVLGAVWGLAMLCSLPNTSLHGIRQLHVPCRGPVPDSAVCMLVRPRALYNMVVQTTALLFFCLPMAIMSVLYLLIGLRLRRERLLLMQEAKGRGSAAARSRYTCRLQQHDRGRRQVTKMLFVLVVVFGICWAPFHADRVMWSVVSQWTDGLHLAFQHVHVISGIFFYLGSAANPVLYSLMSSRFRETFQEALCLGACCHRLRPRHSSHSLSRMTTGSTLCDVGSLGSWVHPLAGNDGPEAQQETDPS
Description: FLIPR calcium mobilization assay, human NMUR1. More on the design: expressed in transfected cells; host or cells: FLP-In CHO or HEK-293 FLP-In cells (pcDNA5); HEK-293/aeq17 lines (pIRES-puro) were also made. The note with it: functional, human R1, relative to native hNMU responses. (In general: Calcium flux is commonly read through the fluorescence of an indicator in the cells.)

For assay [2], the target named is mouse NMUR2 (Mus musculus, UniProt Q8BZ39). Nature of the assay: FLIPR calcium mobilization assay, mouse NMUR2. More on the design: expressed in transfected cells; host or cells: FLP-In CHO or HEK-293 FLP-In cells (pcDNA5). An excerpt:
(§1) Human, mouse or rat cDNAs encoding NMUR1 or NMUR2 (as described in Howard et al. Nature 406: 70-74 (2000) were subcloned in pcDNA5 (Invitrogen) and transfected into FLP-In CHO cells and HEK-293 FLP-In cells purchased from Invitrogen (Carlsbad, Calif.) using lipofectamine (Invitrogen). The Flp-In system allows integration and expression of a particular gene of interest at a specific genomic location utilizing the Flp recombinase from yeast. The transfected cells were selected by growth in medium containing 200 μg/mL hygromycin (Invitrogen). Populations were frozen at early passage numbers, and these stocks were used for further studies. Stable clones that expressed the mRNAs were identified functionally by FLIPR as well as by RT-PCR. […] Two different rodent NMUR1 cell lines were thus generated: one with the codon as predicted from the genomic databases and another cell line with an engineered methionine (ATG) as the start codon. Additionally, stable cell lines expressing the human receptors were generated in HEK-293/aeq17 cells which stably express the aequorin gene under the CMV promoter. The human NMUR2 cDNA was cloned into pcDNA3.1 and human NMUR1 was subcloned into pIRES-puro (Clontech, Mountain View, Calif.), after transfection cells were selected in media containing G418 and either hygromycin (NMUR2) or puromycin (NMUR1).
(§2) The NMU receptors signal primarily through Gαq/11 proteins; therefore calcium mobilization assays can be utilized for functional activity.
(§3) Stable cell lines expressing human and or rodent NMUR1 or human NMUR2 receptors were plated at a density of 12,000 cells per well overnight on poly-lysine coated 384-well black-walled plates. The following day, the media was removed from the plates and the cells were subsequently loaded with Fluo-3 (Molecular Probes), a calcium sensitive dye, diluted in FLIPR buffer (1× Hank's buffered saline containing 20 mM HEPES, 0.1% BSA, 2.5 mM probenecid (Sigma) and 1.6 mM TR40). All reagents are from Invitrogen unless otherwise noted. Peptide stocks were resuspended in DMSO at a stock concentration of 2 mM and diluted in FLIPR buffer on the day of the experiment to a 4 μM working stock solution.
(§4) After a 90 minute incubation at room-temperature, cell plates were loaded onto a FLIPR (Molecular Devices) to monitor cellular fluorescence (excitation=488 nm; emission=540 nm) before and after compound/peptide addition. Eight to twelve point dose responses were tested on NMUR-expressing cell lines using FLIPR with 1 μM peptide as the highest dose. The response after peptide addition was taken as the maximum fluorescence units minus the fluorescence immediately prior to stimulation for each well. EC50 values were calculated using GraphPad Prism (San Diego, Calif.) software.
In vitro responses of Neuromedin U receptor agonists (NMU1 to NMU25) in the FLIPR assay for human (Table 3), mouse (Table 4) and rat (Table 5) NMUR1 and NMUR2. EC50s are reported in nM values. Percent activity refers to the maximum response at 1 μM compared to the hNMU-25 response at the same concentration. NT=not tested.

Assay [3] has as its target T2, hNMUR2 (Homo sapiens, UniProt Q9GZQ4). Description: FLIPR calcium mobilization assay, human NMUR2. The note with it: functional, human R2, relative to native hNMU responses. More on the design: expressed in transfected cells; host or cells: FLP-In CHO or HEK-293 FLP-In cells (pcDNA5); HEK-293/aeq17 lines (pcDNA3.1) were also made.
In assay [4] the target is T2, hNMUR2. Nature of the assay: In vitro functional assay, HEK-hR2 cells. Particulars: Table 8, HEK-hR2, functional. More on the design: expressed in transfected cells; host or cells: FLP-In CHO or HEK-293 FLP-In cells (pcDNA5); HEK-293/aeq17 lines (pcDNA3.1) were also made; % Activity: concentration or dose not given beside the values.
From the text: as §1, §2, §3, §4
In addition to FLIPR, NMU receptor function can also be evaluated using an aequorin assay. Stable cell lines expressing the aequorin jelly fish gene can be used to report the activation of GPCRs by monitoring intracellular calcium mobilization. The objective is to identify compounds which specifically stimulate aequorin bioluminescence. Calcium-dependent luminescence is generated by the treatment of cells with the coelenterate luciferin, coelenterazine. Briefly, confluent monolayers of HEK-293/aeq 17 cells expressing hNMUR1 or hNMUR2 are “charged” with coelenterazine (Molecular Probes, Carlsbad, Calif.). Confluent T75 flasks are rinsed with media containing 300 μM glutathione and 0.1% FBS. Cells are incubated at 37° C. for one hour in 8 mL media, 0.1% FBS, 300 μM glutathione, and 20 μM coelenterazine. T75 flasks are subsequently rinsed with 6 mL ECB buffer (140 mM NaCl, 20 mM KCl, 20 mM HEPES, 5 mM glucose, 1 mM MgCl, 1 mM CaCl2, 0.1 mg/mL BSA, PH 7.3-7.4). Cells are removed from the flask in ECB buffer, pelleted, and resuspended at a density of 2×10^5 cells/mL. Agonists are added to the cells and activity is determined using a luminometer.

This note sets out measurements from patent US20100075907A1, “NEUROMEDIN U RECEPTOR AGONISTS AND USES THEREOF” (priority 2006, published 2010).

Non-standard residues stand in square brackets, D forms with d. Residues, ends and D or L forms follow the SMILES beside them.

A word on the IC50: it is the concentration that inhibits the measured activity by half.

T2 sequence (Q9GZQ4 whole entry): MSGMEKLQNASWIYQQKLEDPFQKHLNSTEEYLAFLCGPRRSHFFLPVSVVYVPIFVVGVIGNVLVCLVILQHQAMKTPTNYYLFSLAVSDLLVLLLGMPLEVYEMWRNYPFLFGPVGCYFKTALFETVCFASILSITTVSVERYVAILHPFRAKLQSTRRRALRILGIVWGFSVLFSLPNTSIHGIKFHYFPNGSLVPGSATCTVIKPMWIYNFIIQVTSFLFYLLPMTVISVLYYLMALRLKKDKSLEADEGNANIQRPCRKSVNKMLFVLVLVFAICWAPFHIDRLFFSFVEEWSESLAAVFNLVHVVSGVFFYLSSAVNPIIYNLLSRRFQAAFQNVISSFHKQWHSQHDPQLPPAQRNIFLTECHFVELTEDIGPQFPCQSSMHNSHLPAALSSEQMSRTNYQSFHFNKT
mouse NMUR2, sequence (Q8BZ39 whole entry): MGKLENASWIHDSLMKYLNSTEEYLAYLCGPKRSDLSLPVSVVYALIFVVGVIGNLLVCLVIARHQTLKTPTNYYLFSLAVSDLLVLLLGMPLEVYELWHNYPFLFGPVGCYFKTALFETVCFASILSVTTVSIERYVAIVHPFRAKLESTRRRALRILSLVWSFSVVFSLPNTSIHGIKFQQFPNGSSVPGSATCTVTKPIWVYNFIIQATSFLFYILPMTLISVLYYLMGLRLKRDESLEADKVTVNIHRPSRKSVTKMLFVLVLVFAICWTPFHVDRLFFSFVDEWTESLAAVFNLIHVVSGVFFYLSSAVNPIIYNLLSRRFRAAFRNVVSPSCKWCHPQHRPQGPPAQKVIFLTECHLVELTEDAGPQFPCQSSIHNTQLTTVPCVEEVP

Take `CC(C)C[C@@H](NC(=O)[C@H](Cc1ccccc1)NC(=O)[C@H](Cc1ccc(O)cc1)NC(=O)CNC(=O)[C@H](CCCNC(=N)N)NC(=O)[C@H](CO)NC(=O)[C@H](CCC(N)=O)NC(=O)[C@H](CO)NC(=O)[C@H](C)NC(=O)[C@H](Cc1ccccc1)NC(=O)[C@@H]1CCCN1C(=O)[C@H](CO)NC(=O)[C@H](CCC(N)=O)NC(=O)[C@H](Cc1ccccc1)NC(=O)[C@H](CCC(=O)O)NC(=O)[C@H](CCC(=O)O)NC(=O)[C@H](CC(=O)O)NC(=O)[C@@H](NC(=O)[C@H](CCCNC(=N)N)NC(=O)[C@@H](N)Cc1ccccc1)C(C)C)C(=O)N[C@@H](Cc1c[nH]c2ccccc12)C(=O)N[C@@H](CCCNC(=N)N)C(=O)N1CCC[C@H]1C(=O)N[C@@H](CCCNC(=N)N)C(=O)N[C@@H](CC(N)=O)C(N)=O` [Agonist H] (H-FRVDEEFQSPFASQSRGYF[dL]WRPRN-NH2; N-terminus assumed): the “% Activity” value in assay [1] is on record as 90%; in assay [2] (functional, mouse R2, relative to native hNMU responses), 40%; in assay [3], 0%; in assay [4], 0%. The IC50 in assay [2] (functional data, mouse R2) is greater than 1 µM; in assay [4], greater than 1 µM.
